# Tested on: PKC mediated IL-2 production
# Assay: IL-2 ELISA, human primary T cell, anti CD3+CD28+
# Assay type: cell-based
# Settings: Homo sapiens, T-cell, 24 h, human primary T cells stimulated with αCD3 and αCD28, 24 hours
# Outline: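 Human peripheral blood T cells, pre-expanded with αCD3/αCD28 and IL-2 and then washed free of IL-2, were pre-incubated with compound for 1 h at 37° C. They were then stimulated on plates coated with […] αCD3 and 5 μg/ml αCD28, or with 0.5 ng/ml PMA plus 0.1 uM ionomycin in the counter assay. IL-2 in supernatants was measured by ELISA after 24 h.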
row,SMILES,EC50
1,CC1(C)C[C@H](Nc2nc(Nc3ccc(OC4CCNCC4O)c(Cl)c3)ncc2F)C[C@@H]2CCCN21 (stereo partly drawn) [Compound 124],100 to 500 nM
2,"CC1(C)C[C@H](Nc2nc(Nc3ccc4c(c3)-n3nnnc3C(CO)(CO)O4)ncc2F)C[C@@H]2CCCN21 [Compound 125, (8-((4-(((7R,8aS)-5,5-dimethyloctahydroindolizin-7-yl)amino)-5-fluoropyrimidin-2-yl)amino)-4H-benzo[b]tetrazolo[1,5-d][1,4]oxazine-4,4-diyl)dimethanol]",1000 to 10000 nM
3,"CC1(C)C[C@H](Nc2nc(Nc3ccc(OC4CCNCC4)c(OC(F)F)c3)ncc2F)C[C@@H]2CCCN21 [Compound 128, N^2-(3-(difluoromethoxy)-4-(piperidin-4-yloxy)phenyl)-N^4-((7R,8aS)-5,5-dimethyloctahydroindolizin-7-yl)-5-fluoropyrimidine-2,4-diamine]",100 to 500 nM
4,"CC1(C)C[C@H](Nc2nc(Nc3ccc(OCCO)c(F)c3)ncc2F)C[C@@H]2CCCN21 [Compound 130, 2-(4-((4-(((7R,8aS)-5,5-dimethyloctahydroindolizin-7-yl)amino)-5-fluoropyrimidin-2-yl)amino)-2-fluorophenoxy)ethan-1-ol]",500 to 1000 nM
5,"CC1(C)C[C@H](Nc2nc(Nc3ccc(OCCO)c(Cl)c3)ncc2F)C[C@@H]2CCCN21 [Compound 133, 2-(2-chloro-4-((4-(((7R,8aS)-5,5-dimethyloctahydroindolizin-7-yl)amino)-5-fluoropyrimidin-2-yl)amino)phenoxy)ethan-1-ol]",100 to 500 nM
6,"Cc1cc(Nc2ncc(F)c(N[C@@H]3C[C@@H]4CCCN4C(C)(C)C3)n2)ccc1OCCO [Compound 134, 2-(4-((4-(((7R,8aS)-5,5-dimethyloctahydroindolizin-7-yl)amino)-5-fluoropyrimidin-2-yl)amino)-2-(methyl)phenoxy)ethan-1-ol]",100 to 500 nM
7,"Cn1nnn(-c2cc(Nc3ncc(F)c(N(CC(C)(C)O)[C@@H]4C[C@@H]5CCCN5C(C)(C)C4)n3)c(F)cc2OCC(C)(C)O)c1=O [Compound 139, 1-(5-(4-(((7R,8aS)-5,5-dimethyloctahydroindolizin-7-yl)(2-hydroxy-2-methylpropyl)amino)-5-fluoropyrimidin-2-ylamino)-4-fluoro-2-(2-hydroxy-2-methylpropoxy)phenyl)-4-methyl-1H-tetrazol-5(4H)-one]",> 10000 nM
8,"Cc1nnnn1-c1ccc(F)c(Nc2ncc(F)c(N[C@@H]3C[C@@H]4CCCN4C(C)(C)C3)n2)c1 [Compound 142, N4-((7R,8aS)-5,5-dimethyloctahydroindolizin-7-yl)-5-fluoro-N2-(2-fluoro-5-(5-methyl-1H-tetrazol-1-yl)phenyl)pyrimidine-2,4-diamine]",< 100 nM
9,"CC1(C)C[C@H](Nc2nc(Nc3ccc(F)c(-n4nnnc4C4CC4)c3)ncc2F)C[C@@H]2CCCN21 [Compound 143, N2-(3-(5-cyclopropyl-1H-tetrazol-1-yl)-4-fluorophenyl)-N4-((7R,8aS)-5,5-dimethyloctahydroindolizin-7-yl)-5-fluoropyrimidine-2,4-diamine]",< 100 nM
10,"CC1(C)C[C@H](Nc2nc(Nc3cc(-n4nnnc4C4CC4)ccc3F)ncc2F)C[C@@H]2CCCN21 [Compound 144, N2-(5-(5-cyclopropyl-1H-tetrazol-1-yl)-2-fluorophenyl)-N4-((7R,8aS)-5,5-dimethyloctahydroindolizin-7-yl)-5-fluoropyrimidine-2,4-diamine]",< 100 nM

# Further lines, results first:
row,EC50,SMILES
1,< 100 nM,"CC1(C)C[C@H](Nc2nc(Nc3ccc4c(c3)-n3nnnc3C3(COC3)O4)ncc2F)C[C@@H]2CCCN21 [Compound 126, N^4-((7R,8aS)-5,5-dimethyloctahydroindolizin-7-yl)-5-fluoro-N^2-(spiro[benzo[b]tetrazolo[1,5-d][1,4]oxazine-4,3′-oxetan]-8-yl)pyrimidine-2,4-diamine]"
2,< 100 nM,"CC1(C)C[C@H](Nc2nc(Nc3ccc(OCCO)c(-n4nnnc4C4CC4)c3)ncc2F)C[C@@H]2CCCN21 [Compound 129, 2-(2-(5-cyclopropyl-1H-tetrazol-1-yl)-4-((4-(((7R,8aS)-5,5-dimethyloctahydroindolizin-7-yl)amino)-5-fluoropyrimidin-2-yl)amino)phenoxy)ethan-1-ol]"
3,< 100 nM,"CC1(C)C[C@H](Nc2nc(Nc3ccc(OCCO)c(C(F)(F)F)c3)ncc2F)C[C@@H]2CCCN21 [Compound 131, 2-(4-((4-(((7R,8aS)-5,5-dimethyloctahydroindolizin-7-yl)amino)-5-fluoropyrimidin-2-yl)amino)-2-(trifluoromethyl)phenoxy)ethan-1-ol]"
4,< 100 nM,"Cn1nnn(-c2cc(Nc3ncc(F)c(N[C@@H]4C[C@@H]5CCCN5C(C)(C)C4)n3)ccc2OCCO)c1=O [Compound 132, 1-(5-((4-(((7R,8aS)-5,5-dimethyloctahydroindolizin-7-yl)amino)-5-fluoropyrimidin-2-yl)amino)-2-(2-hydroxyethoxy)phenyl)-4-methyl-1,4-dihydro-5H-tetrazol-5-one]"
5,< 100 nM,"C[C@@H](CO)Oc1ccc(Nc2ncc(F)c(N[C@@H]3C[C@@H]4CCCN4C(C)(C)C3)n2)cc1-n1nnn(C)c1=O [Compound 135, 1-(5-((4-(((7R,8aS)-5,5-dimethyloctahydroindolizin-7-yl)amino)-5-fluoropyrimidin-2-yl)amino)-2-(((S)-1-hydroxypropan-2-yl)oxy)phenyl)-4-methyl-1,4-dihydro-5H-tetrazol-5-one]"
6,< 100 nM,"CC1(C)Oc2ccc(Nc3ncc(F)c(N[C@@H]4C[C@@H]5CCCN5C(C)(C)C4)n3)cc2-n2nnnc21 [Compound 136, N2-(4,4-dimethyl-4H-benzo[b]tetrazolo[1,5-d][1,4]oxazin-8-yl)-N4-((7R,8aS)-5,5-dimethyloctahydroindolizin-7-yl)-5-fluoropyrimidine-2,4-diamine]"
7,< 100 nM,"CC1(C)C[C@H](Nc2nc(Nc3ccc4c(c3)-n3nnnc3C3(CCOCC3)O4)ncc2F)C[C@@H]2CCCN21 [Compound 137, N4-((7R,8aS)-5,5-dimethyloctahydroindolizin-7-yl)-5-fluoro-N2-(2′,3′,5′,6′-tetrahydrospiro[benzo[b]tetrazolo[1,5-d][1,4]oxazine-4,4′-pyran]-8-yl)pyrimidine-2,4-diamine]"
8,< 100 nM,"CC(C)N1CCN(c2ccc(Nc3ncc(F)c(N[C@@H]4C[C@@H]5CCCN5C(C)(C)C4)n3)cc2C#N)CC1 [Compound 138, 5-(4-((7R,8aS)-octahydro-5,5-dimethylindolizin-7-ylamino)-5-fluoropyrimidin-2-ylamino)-2-(4-isopropylpiperazin-1-yl)benzonitrile]"
9,< 100 nM,"COc1ccc(Nc2ncc(F)c(N[C@@H]3C[C@@H]4CCCN4C(C)(C)C3)n2)cc1-n1nnnc1C [Compound 140, N4-((7R,8aS)-5,5-dimethyloctahydroindolizin-7-yl)-5-fluoro-N2-(4-methoxy-3-(5-methyl-1H-tetrazol-1-yl)phenyl)pyrimidine-2,4-diamine]"
10,< 100 nM,"Cc1nnnn1-c1cc(Nc2ncc(F)c(N[C@@H]3C[C@@H]4CCCN4C(C)(C)C3)n2)ccc1F [Compound 141, N4-((7R,8aS)-5,5-dimethyloctahydroindolizin-7-yl)-5-fluoro-N2-(4-fluoro-3-(5-methyl-1H-tetrazol-1-yl)phenyl)pyrimidine-2,4-diamine]"

# Same assay, conditions: human primary T cells stimulated with αCD3 and αCD28, 24 hours
row,EC50,SMILES
1,< 100 nM,CC1(O)COc2ccc(Nc3ncc(F)c(N[C@@H]4C[C@@H]5CCCN5C(C)(C)C4)n3)cc2-n2nnnc21 (stereo partly drawn) [Compound 127]

# Source: patent US9682976B2, “Protein kinase C inhibitors and uses thereof” (Rigel Pharmaceuticals, Inc., priority 2012, dated 2017)
